{"source": "paper PMC10518255", "about": "“A first-in-class pan-lysyl oxidase inhibitor impairs stromal remodeling and enhances gemcitabine response and survival in pancreatic cancer” (Nature Cancer, 2023)", "key": {"KPC PDAC tumors": {"tested_on": "KPC PDAC tumors", "test": "Picrosirius red staining of KPC tumors (Fig. 1g)", "format": "in vivo, mouse", "details": "KPC tumour bearing mice, Gem 100 mg/kg twice weekly i.p. for 15 cycles, individual animals", "from_the_text": "Fig. 1 Characterization of LOX family in PDAC. a,b, Kaplan–Meier curves for 5-year overall survival for lysyl oxidase family scores in the APGI/ICGC (low, n = 90 patients; high, n = 89 patients) (a) and TCGA (low, n = 57 patients; high, n = 58 patients) (b) PDAC datasets. Lines represent upper and lower tertiles. The lysyl oxidase family expression score is weighted by the Cox proportional hazards model coefficients for each family member. P values determined by log-rank (Mantel–Cox) test. c, Representative images of picrosirius red stained tumor cores from APGI/ICGC tumor microarrays. […] P values determined by log-rank (Mantel–Cox) test. e, Human LOX and LOXL2 plasma concentrations in healthy (n = 30 patient samples) and patients with PDAC (n = 12 patient samples) determined by SiMoA. […] Scale bars, 100 μm. g, Quantitative comparison of picrosirius red staining in tumors from KPC tumor-bearing mice treated with either saline vehicle or gemcitabine (n = 10 biologically independent animals per group). […] Two-tailed P values determined by unpaired, nonparametric t-tests with a Mann–Whitney U-test correction (comparison between two groups). […]"}, "[1]": {"test": "Tissue concentration by LC-MS/MS after single oral dose of 30 mg/kg (plasma, kidney, liver, lung, heart, ear; Extended Data Fig. 3e)", "method": "PXS-5505 concentration, as measured by LC–MS/MS, in rat plasma, kidney, liver, lung, heart and ear samples following a single oral dose of 30 mg/kg (n = 3 independent animals). Data presented as mean values +/− SD. f. Plasma concentration profile over time in mice following oral administration of PXS-5505 (30 mg/kg) (n = 3 independent animals) g. Schematic of amplex red coupled fluorometric lysyl oxidase family activity assay whereby putrescine (put) is used as a substrate resulting in the release of H2O2 and its subsequent catalysis by horseradish peroxidase (HRP) to […] amplex red to resorufin resulting in a fluorescently detectable signal. […] Data presented as mean values +/− SD. h. qRT-PCR showing in vitro 48 hour treatment of KPC CAFs or cancer cells with 30 μM PXS-5505 or vehicle control (n = 3 biological repeats with 3 technical replicates per biological repeat). Data presented as mean values +/− SD. Relative fold expression of lysyl oxidase family members from PXS-5505 treated samples compared to control were determined by the 2^–∆∆Ct approach. p-values determined by unpaired, nonparametric t-test with a Mann–Whitney U correction (comparison between two groups). i. 2D in vitro cell viability assay (MTS assay) for KPC CAFs and CCs (n = 3 biological repeats with 3 technical replicates per biological repeat) in response to PXS-5505. Data presented as mean values +/− SD. Ordinary one-way ANOVA for multiple comparison test performed. j. 3D in vitro cell viability assay (MTS assay) for KPC CAFs and CCs (n = 3 biological repeats with 3 technical replicates per biological repeat) in response to PXS-5505. Data presented as mean values +/− SD. Ordinary one-way ANOVA for multiple comparison test performed. Source data"}, "[2]": {"test": "3D cell viability assay (MTS, collagen)", "format": "cell-based, mouse", "details": "mouse, replicates", "method": "(§1) The 3D cell viability assays were performed using cells embedded into polymerized collagen at 2.5 mg ml^−1. KPC CAFs and CCs were seeded at 10,000 cells per well in a 96-well plate. MTS solution (Promega) was added to the cells at a 1:20 dilution and cells were incubated at 37 °C for 1.5 h. Cell proliferation rates were measured by detecting the absorbance at 490 nm using a microplate reader and three biological repeats were performed.\n(§2) Data presented as mean values +/− SD. f. […] Data presented as mean values +/− SD. […] Data presented as mean values +/− SD. […] Data presented as mean values +/− SD. Ordinary one-way ANOVA for multiple comparison test performed. Source data"}, "KPC CAFs": {"tested_on": "KPC CAFs", "test": "3D cell viability assay (MTS, collagen)", "format": "cell-based, mouse", "details": "for 3D cell viability (MTS assay): replicates", "method": "as §1, §2"}, "KPC CCs": {"tested_on": "KPC CCs", "test": "3D cell viability assay (MTS, collagen)", "format": "cell-based, mouse", "details": "for 3D cell viability (MTS assay): KPC CC, replicates", "method": "as §1, §2"}, "[3]": {"details": "rat, single oral dose 30 mg/kg, 1 hr, n = 3"}}, "note": "Several values for one entry are separate records, joined by “and”; a condition that tells them apart may be missing. Equal values may be shown once.", "data": [{"smiles": "Nc1ccn([C@@H]2O[C@H](CO)[C@@H](O)C2(F)F)c(=O)n1", "note": "[Gem, gemcitabine]", "values": [{"measurement": "picrosirius red staining in tumours", "setting": "KPC PDAC tumors", "value": "26.8678 and 24.1241 and 47.4949 and 47.2536 and 61.2999 and 20.5678 and 34.5947 and 25.1726 and 42.1276 and 82.533"}]}, {"smiles": "Cl.Cl.NC/C=C(\\F)CS(=O)(=O)c1cccc2cccnc12.O", "note": "[PXS-5505, (Z)-3-fluoro-4-(quinolin-8-ylsulfonyl)but-2-en-1-amine dihydrochloride monohydrate]", "values": [{"measurement": "tissue penetration", "setting": "[1]; after oral administration", "value": "penetrates core and peripheral matrix-rich tissues (the ear pinnae) well"}, {"measurement": "PXS-5505 concentration by LC-MS/MS, ear, Mean", "setting": "[1]; [3]", "value": 1911.2}, {"measurement": "PXS-5505 concentration by LC-MS/MS, heart, Mean", "setting": "[1]; [3]", "value": 5777.3}, {"measurement": "PXS-5505 concentration by LC-MS/MS, kidney, Mean", "setting": "[1]; [3]", "value": 19237.2}, {"measurement": "PXS-5505 concentration by LC-MS/MS, liver, Mean", "setting": "[1]; [3]", "value": 32467.6}, {"measurement": "PXS-5505 concentration by LC-MS/MS, lung, Mean", "setting": "[1]; [3]", "value": 954.9}, {"measurement": "PXS-5505 concentration by LC-MS/MS, plasma, Mean", "setting": "[1]; [3]", "value": 3609.6}, {"measurement": "viability", "setting": "[2]; KPC CAFs embedded in polymerized collagen (3D), PXS-5505 3 (unit inferred)", "value": 97.2, "unit": "%"}, {"measurement": "viability", "setting": "[2]; KPC CAFs embedded in polymerized collagen (3D), PXS-5505 30 (unit inferred)", "value": 87.5, "unit": "%"}, {"measurement": "viability", "setting": "[2]; KPC CAFs embedded in polymerized collagen (3D), PXS-5505 100 (unit inferred)", "value": 99, "unit": "%"}, {"measurement": "viability", "setting": "[2]; KPC cancer cells (CCs) embedded in polymerized collagen (3D), KPC CC, PXS-5505 0.3 (unit inferred)", "value": 97.5, "unit": "%"}, {"measurement": "viability", "setting": "[2]; KPC cancer cells (CCs) embedded in polymerized collagen (3D), KPC CC, PXS-5505 3 (unit inferred)", "value": 108, "unit": "%"}, {"measurement": "viability", "setting": "[2]; KPC cancer cells (CCs) embedded in polymerized collagen (3D), KPC CC, PXS-5505 30 (unit inferred)", "value": 100, "unit": "%"}, {"measurement": "viability", "setting": "[2]; KPC cancer cells (CCs) embedded in polymerized collagen (3D), KPC CC, PXS-5505 100 (unit inferred)", "value": 96.7, "unit": "%"}, {"measurement": "3D cell viability (MTS assay)", "setting": "KPC CAFs; PXS-5505 0.3 (unit not given)", "value": "102.654 and 114.604 and 89.88"}, {"measurement": "3D cell viability (MTS assay)", "setting": "KPC CAFs; PXS-5505 3 (unit not given)", "value": "96.8872 and 86.2796"}, {"measurement": "3D cell viability (MTS assay)", "setting": "KPC CAFs; PXS-5505 30 (unit not given)", "value": "93.0804 and 86.6488"}, {"measurement": "3D cell viability (MTS assay)", "setting": "KPC CAFs; PXS-5505 100 (unit not given)", "value": "93.525 and 85.922"}, {"measurement": "3D cell viability (MTS assay)", "setting": "KPC CAFs; PXS-5505 300 (unit not given)", "value": "102.9 and 101.619 and 82.2294"}, {"measurement": "effect on proliferation, 3D", "setting": "KPC CAFs; up to 300 µM", "value": "nor did it show any effect on proliferation"}, {"measurement": "3D cell viability (MTS assay)", "setting": "KPC CCs; PXS-5505 0.3 (unit not given)", "value": "101.864 and 94.0126"}, {"measurement": "3D cell viability (MTS assay)", "setting": "KPC CCs; PXS-5505 3 (unit not given)", "value": "104.713 and 92.4708"}, {"measurement": "3D cell viability (MTS assay)", "setting": "KPC CCs; PXS-5505 30 (unit not given)", "value": "96.3592 and 91.3434"}, {"measurement": "3D cell viability (MTS assay)", "setting": "KPC CCs; PXS-5505 100 (unit not given)", "value": "92.997 and 88.536"}, {"measurement": "3D cell viability (MTS assay)", "setting": "KPC CCs; PXS-5505 300 (unit not given)", "value": "102.736 and 92.2188 and 80.3582"}, {"measurement": "effect on proliferation, 3D", "setting": "KPC CCs; KPC CCs, up to 300 µM", "value": "nor did it show any effect on proliferation"}]}]}
